Among the data in PubChem BioAssay AID463206 (Broad Institute, 2010) are AC50 values, retold here.

The term AC50 denotes the concentration at which the activity in the assay is half-maximal.

The structures appear in SMILES notation. The source made the active and inactive calls.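 Rule for the calls: active = caspase luminescence falls with dose and the half-maximal concentration AC50 from the fitted curve is at or below a set limit; inconclusive = flat fit at 30 to 70% signal loss, or invalid fit; inactive = AC50 above the limit, or signal rises instead.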

The subject of the experiment is INS-1E cytokine-induced caspase-3/7, Caspase-Glo luminescence, 48 h. The experiment in a line: inhibitors of cytokine-induced caspase-3/7 activity, dose response, orthogonal assay for beta-cell apoptosis protection project, INS-1E rat cells, luminescence (AID 463206).
As to `O=C(C1CCC1)N1CCc2cc(S(=O)(=O)Nc3ccc4c(c3)OCCO4)ccc21`, the AC50 was > 26 µM (inactive). Under `CCCC(=O)NC(NC(=S)Nc1ccc(N=Nc2ccccc2)cc1)C(Cl)(Cl)Cl` (centres undefined) stands > 26 µM (inactive); under `COc1ccc(NC(=O)/C(Cl)=C(/Cl)S(=O)Cc2ccc(C)cc2)cn1` (centres undefined), > 26 µM (inactive).

For `O=C(Nc1ccc(Cl)c(Cl)c1)N1CCSC1c1ccco1` (centres undefined), the AC50 is > 26 µM (inactive).

Regarding `O=C(Nc1ccc(Cl)cc1)Nc1nnc(CSCc2ccc(Cl)cc2)s1`, the AC50 was > 26 µM (inactive). Under `O=C(c1ccc2c(c1)[nH]c(=S)n1c3ccccc3nc21)N1CCN(c2cccc(Cl)c2)CC1` stands > 26 µM (inactive); under `Cc1cccc(CNc2ncnc3ccc(-c4ccc5c(c4)OCCO5)cc23)c1`, > 26 µM (inactive); under `CSc1nc(-c2ccccc2)nc(C(Cl)Cl)n1`, 2.7 µM. Under `O=C(Nc1ccc(N2CCN(Cc3ccccc3Cl)CC2)cc1)c1cccnc1` stands > 26 µM (inactive); under `Cn1c2c(c(=O)n(C)c1=O)C(C(F)(F)F)(C(F)(F)F)N=C(c1ccc(Cl)cc1)N2`, > 26 µM (inactive). Under `O=C(Nc1nc2ccc(F)cc2s1)C1CCN(S(=O)(=O)c2cc([N+](=O)[O-])ccc2Cl)CC1` stands > 26 µM (inactive). For `Cn1nc(-c2ccc(Cl)cc2)nc2c(=O)n(C)c(=O)nc1-2`, the AC50 was > 26 µM (inactive). Under `Cc1cc(C)nc(SCC(=O)NC2=NN=C(c3ccc(Br)cc3)CS2)n1` stands > 26 µM (inactive); under `CCN(CC)c1ccc(/C=N/NC(=O)c2ccoc2C)c(O)c1`, > 26 µM (inactive). For the compound `COc1ccc(NC(=O)/C(Cl)=C(/Cl)S(=O)Cc2ccccc2)cn1` (centres undefined), the AC50 was > 26 µM (inactive). Turning to `CCCCCCCC[n+]1cccc2c3ccccc3ccc21`, the AC50 is > 26 µM (inactive). For the compound `O=C(NNC(=O)c1cccnc1SCc1cccc([N+](=O)[O-])c1)c1ccc(F)cc1`, the AC50 was > 26 µM (inactive). For `Cc1cc(C(=O)N/N=C/c2cc(Br)cc(Br)c2OC(=O)c2cccc(F)c2)n[nH]1`, the AC50 was > 26 µM (inactive).

For the compound `Cc1ccc(-c2c[n+](Cc3ccc(Cl)c(Cl)c3)c3n2CCC3)cc1`, the AC50 is > 26 µM (inactive). On to `Cc1sc2ncnc(NCC3COc4ccccc4O3)c2c1C` (centres undefined), for which the AC50 is > 26 µM (inactive). Regarding `O=C1C=C(N2CCCCC2)c2ccccc2C1=O`, the AC50 is > 26 µM (inactive). Turning to `Cn1nccc1C(=O)N/N=C/c1c(O)ccc2ccccc12`, the AC50 was > 26 µM (inactive). As for `CCC1=NN(C(=O)c2cccc(Br)c2)C(O)(c2ccc(Br)cc2)C1` (centres undefined), the AC50 is > 26 µM (inactive).

For `CCC[N+]1(CC#CCC(c2ccccc2)c2ccccc2)CCCCC1`, the AC50 is > 26 µM (inactive). Under `CCOC(=O)c1ccc(-[n+]2c(-c3ccccc3)cc(-c3ccccc3)cc2-c2ccccc2)cc1` stands > 26 µM (inactive); under `CCCNC(=O)c1ccc2c(=O)c(O)c(-c3ccc(Cl)c([N+](=O)[O-])c3)[nH]c2c1`, 3.22 µM; under `CCS(=O)(=O)c1ncc(Cl)c(C(=O)Nc2ccc(S(=O)(=O)N3CCC(C)CC3)cc2)n1`, > 26 µM (inactive).

With `CCOc1ccccc1NC(=O)c1nc(S(=O)(=O)Cc2cccc(C)c2)ncc1Cl`, the AC50 was > 26 µM (inactive).

Take `O=S(=O)(c1ccc2c(c1)OCCO2)N1CCN(c2ncnc3sccc23)CC1`: the AC50 was > 26 µM (inactive). Under `O=c1c2c3c(sc2n(CCN2CCCCC2)c(=O)n1Cc1ccco1)CCCCC3` stands 25.4 µM; under `Fc1ccccc1/C=N/Nc1nc(-c2ccccn2)nc2ccccc12`, > 26 µM (inactive). With `COc1ccc([N+](=O)[O-])c(S(=O)(=O)c2ccccc2)n1`, the AC50 was > 26 µM (inactive). In the case of `Oc1c(N=Nc2ccccn2)ccc2ccccc12`, the AC50 was > 26 µM (inactive). Under `COc1ccc(CCNc2ncnc3sccc23)cc1OC` stands > 26 µM (inactive).
